The source of these data is patent US20120129811A1, “TRICYCLIC INHIBITORS OF PRO-MATRIX METALLOPROTEINASE ACTIVATION” (priority 2010, published 2012).

Experiment [1] addresses T1, proMMP9(20-445;ΔFnII) (SEQ ID NO:6) (Homo sapiens, UniProt P14780, DEL216-390).
T1 construct: start methionine (N); made in house; host or cells: E. coli BL21(DE3) RIL
T1 sequence (P14780 with tags, fused parts or gaps DEL216-390): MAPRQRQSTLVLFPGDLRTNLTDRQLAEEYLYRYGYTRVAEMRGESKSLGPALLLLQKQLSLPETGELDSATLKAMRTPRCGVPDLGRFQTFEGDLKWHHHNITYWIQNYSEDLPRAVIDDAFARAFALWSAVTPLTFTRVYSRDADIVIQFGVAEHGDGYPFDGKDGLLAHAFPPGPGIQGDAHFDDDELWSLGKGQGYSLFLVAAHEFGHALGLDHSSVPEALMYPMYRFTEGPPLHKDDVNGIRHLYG
Nature of the experiment: ThermoFluor binding assay with proMMP9(20-445;ΔFnII). An outline of the steps: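 Protein thermal stability was measured with 2.8 μM proMMP9(20-445;ΔFnII) and 50 μM 1,8-ANS in 50 mM HEPES pH 7.0, 100 mM NaCl, 0.001% Tween-20, 2.5 mM MgCl2, 300 μM CaCl2, across serial compound dilutions. Samples were heated 40–90° C at 1° C/min with fluorescence read at 500 nm. Tm was fitted, and binding was derived from thermodynamic parameters obtained by DSC and ThermoFluor.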
In general terms: Differential scanning fluorimetry follows unfolding on heating by fluorescence.

Experiment [2] has as its target T2, proMMP9(67-444;ΔFnII) (SEQ ID NO:5) (Homo sapiens, UniProt P14780, DEL216-390).
T2 construct: start methionine (N); made in house; host or cells: E. coli BL21(DE3) RIL
T2 sequence (P14780 with tags, fused parts or gaps DEL216-390): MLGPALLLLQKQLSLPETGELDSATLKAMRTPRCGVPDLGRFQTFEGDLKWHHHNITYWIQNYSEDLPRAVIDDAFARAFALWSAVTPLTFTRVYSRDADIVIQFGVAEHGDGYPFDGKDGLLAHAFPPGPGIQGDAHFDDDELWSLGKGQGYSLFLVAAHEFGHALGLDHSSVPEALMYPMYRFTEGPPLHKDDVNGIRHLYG
Nature of the experiment: ThermoFluor binding assay with proMMP9(67-444;ΔFnII). The gist of the method:
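Thermal shift of 3.5 μM proMMP9(67-444;ΔFnII), desalted beforehand, with 50 μM 1,8-ANS in 50 mM HEPES pH 7.0, 100 mM NaCl, 2.5 mM MgCl2, 300 μM CaCl2, 0.001% Tween-20. Heated 40–90 °C at 1 °C/min, fluorescence read at 500 nm; binding fitted from Tm shifts using DSC- and ThermoFluor-derived unfolding parameters.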

In experiment [3] the target is T3, proMMP13(1-268) (SEQ ID NO:7) (Homo sapiens, UniProt P45452).
T3 construct: 6xHis (C); made in house; host or cells: HEK293 (transient, secreted)
Nature of the experiment: ThermoFluor binding assay with proMMP13(1-268). Here is the method: The ThermoFluor® (TF) assay is a 384-well plate-based binding assay that measures thermal stability of proteins (Biomol Screen 2001, 6, 429-40; Biochemistry 2005, 44, 5258-66). The experiments were carried out using instruments available from Johnson & Johnson Pharmaceutical Research & Development, LLC. TF dye used in all experiments was […] (1,8-ANS) (Invitrogen: A-47).
Compounds were arranged in a pre-dispensed plate (Greiner Bio-one: 781280), wherein compounds were serially diluted in 100% DMSO across 11 columns within a series. Columns 12 and 24 were used as DMSO reference and contained no compound. For multiple compound concentration-response experiments, the compound aliquots (50 nL) were robotically predispensed directly into black 384-well polypropylene PCR microplates (Abgene: TF-0384/k) using a Cartesian Hummingbird liquid handler (DigiLab, Holliston, Mass.). Following compound dispense, protein and dye solutions were added to achieve the final assay volume of 3 μL. The assay solutions were overlayed with 1 μL of silicone oil (Fluka, type DC 200: 85411) to prevent evaporation.
Assay plates were robotically loaded onto a thermostatically controlled PCR-type thermal block and then heated from 40 to 90° C. at a ramp-rate of 1° C./min for all experiments. Fluorescence was measured by continuous illumination with UV light (Hamamatsu LC6) supplied via fiber optics and filtered through a band-pass filter (380-400 nm; >60D cutoff). Fluorescence emission of the entire 384-well plate was detected by measuring light intensity using a CCD camera (Sensys, Roper Scientific) filtered to detect 500±25 nm, resulting in simultaneous and independent readings of all 384 wells. A single image with 20-sec exposure time was collected at each temperature, and the sum of the pixel intensity in a given area of the assay plate was recorded vs temperature and fit to standard equations to yield the Tm (J Biomol Screen 2001, 6, 429-40).
Thermodynamic parameters necessary for fitting compound binding for each proMMP were estimated by differential scanning calorimetry (DSC) and from ThermoFluor® data. The heat capacity of unfolding for each protein was estimated from the molecular weight and from ThermoFluor® dosing data.
ThermoFluor® with proMMP13(1-268) (SEQ ID NO: 7)
The proMMP13(1-268) (SEQ ID NO:7) protein sample preparations included a desalting buffer exchange step via a PD-10 gravity column (GE Healthcare). The desalting buffer exchange was performed prior to diluting the protein to the final assay concentration of 3.5 μM. The concentration of proMMP13(1-268) (SEQ ID NO:7) was estimated spectrophotometrically based on a calculated extinction coefficient of ε280=37000 M^−1 cm^−1, a calculated molecular weight of 30.8 kDa, and calculated pI of 5.33. ThermoFluor® reference conditions were defined as follows: 100 μg/mL proMMP13(1-268) (SEQ ID NO:7), 25 μM 1,8-ANS, pH 7.0 Buffer (50 mM HEPES pH 7.0, 100 mM NaCl, 0.001% Tween-20, 2.5 mM MgCl2, 300 μM CaCl2). The thermodynamic parameters for proMMP13(1-268) (SEQ ID NO:7) are as follows: Tm (° C.)=67 (+/−0.1), ΔUH(Tm)) (cal mol^−1)=107000(+/−5000), ΔUSTm (cal mol^−1 K^−1)=318, ΔUCp (cal mol^−1 K^−1)=2600.

For experiment [4], the target named is T4, full-length proMMP9(1-707) activation by catalytic MMP3 (Homo sapiens, UniProt P14780, R574P).
T4 construct: made in house; host or cells: proMMP9: HEK293 (secreted); MMP3: E. coli
Nature of the experiment: proMMP9/MMP3 P126 Activation Assay. It counts as biochemical. The method, then: proMMP9/MMP3 P126 Activation Assay
The reaction volume was 50 μL. […] Reactivity of residual MMP3 towards P-126 substrate was minimal under these conditions.

SMILES strings stand for the structures. Where a name gives a salt, the structure may show the parent alone.

T4 sequence (P14780 20-707 R574P): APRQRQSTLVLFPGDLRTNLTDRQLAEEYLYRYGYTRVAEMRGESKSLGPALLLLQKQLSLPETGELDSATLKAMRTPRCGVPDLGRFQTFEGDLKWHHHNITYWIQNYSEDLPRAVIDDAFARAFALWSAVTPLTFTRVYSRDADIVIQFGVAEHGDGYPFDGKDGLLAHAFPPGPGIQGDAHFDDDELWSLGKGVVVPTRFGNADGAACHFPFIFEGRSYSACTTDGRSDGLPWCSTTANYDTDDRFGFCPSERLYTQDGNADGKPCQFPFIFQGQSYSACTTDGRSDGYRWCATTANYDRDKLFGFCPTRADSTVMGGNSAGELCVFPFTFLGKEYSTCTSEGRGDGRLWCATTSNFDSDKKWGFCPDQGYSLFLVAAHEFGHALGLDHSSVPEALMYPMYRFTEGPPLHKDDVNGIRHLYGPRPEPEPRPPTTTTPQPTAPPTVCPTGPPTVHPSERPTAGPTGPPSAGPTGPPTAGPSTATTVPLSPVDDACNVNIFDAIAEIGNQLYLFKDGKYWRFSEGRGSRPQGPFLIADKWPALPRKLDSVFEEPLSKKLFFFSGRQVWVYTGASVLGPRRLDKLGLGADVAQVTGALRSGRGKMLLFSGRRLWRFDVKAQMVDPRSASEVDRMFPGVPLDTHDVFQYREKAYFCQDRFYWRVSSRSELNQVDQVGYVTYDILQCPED

As usually defined, the Kd is the concentration at which binding is half-saturated. The term IC50 denotes the concentration needed to halve the response being measured. The low end stands for higher potency, the high end for lower potency. In the case of `COc1ccccc1Nc1nc2c(ccc3sc(N)nc32)s1` [Example 1, N^7-(2-Methoxy-phenyl)-benzo[2,1-d;3,4-d′]-bisthiazole-2,7-<diamine.TFA], the equilibrium dissociation constant (Kd) came out at 3600 nM in experiment [1], 810 nM in experiment [2] and 7000 nM in experiment [3]. This compound showed an IC50 in experiment [4] of 2800 nM.
The like results for `COc1ccccc1Nc1nc2c(ccc3nc(N)sc32)s1` [Example 2, N^7-(2-Methoxy-phenyl)-benzo[1,2-d;3,4-d′]-bisthiazole-2,7-diamine.TFA] were, in that order, 2200 nM, 410 nM, 8700 nM and 1300 nM.
The like results for `CC(C)Oc1ccc(C(N)=O)cc1Nc1nc2c(ccc3nc(N)sc32)s1` [Example 5, 3-(2-Amino-benzo[1,2-d;3,4-d′]bisthiazol-7-ylamino)-4-isopropoxy-benzamide.TFA] were, in that order, 320 nM, 410 nM, 730 nM and 920 nM.
For the compound `COc1ccccc1Nc1nc2c(ccc3[nH]c(N)nc32)s1` [Example 6, N^2-(2-Methoxy-phenyl)-6H-imidazo[4′,5′:3,4]benzo[2,1-d]thiazole-2,7-diamine], the Kd in experiment [1] worked out at 2400 nM; in experiment [2], 290 nM; in experiment [3] it was 11000 nM. For the same compound, inhibition in experiment [4] was half-maximal at 660 nM (IC50).
Regarding `COc1ccc(OC)c(Nc2nc3c(ccc4nc(N)sc43)s2)c1` [Example 8, N^7-(2,5-Dimethoxy-phenyl)-benzo[1,2-d;3,4-d′]-bisthiazole-2,7-diamine.TFA], the Kd in experiment [1] amounted to 3100 nM; in experiment [2], 680 nM; in experiment [3], 1800 nM. Besides, the IC50 in experiment [4] stood at 1200 nM.
Regarding `CC(C)Oc1ccccc1Nc1nc2c(ccc3nc(N)sc32)s1` [Example 9, N^7-(2-Isopropoxy-phenyl)-benzo[1,2-d;3,4-d′]-bisthiazole-2,7-diamine.TFA], the Kd in experiment [1] was found to be 27000 nM; in experiment [2], 4400 nM; in experiment [3], 18000 nM. In addition, the IC50 in experiment [4] came out at 10000 nM.
For `CC(C)Oc1ccc(C(=O)O)cc1Nc1nc2c(ccc3[nH]c(N)nc32)s1` [Example 10, 3-(7-Amino-6H-imidazo[4′,5′:3,4]benzo[2,1-d]thiazol-2-ylamino)-4-isopropoxy-benzoic acid.HCl], in that order: 940 nM, 91 nM, 710 nM and 130 nM.
For `CC(C)Oc1ccc(C(N)=O)cc1Nc1nc2c(ccc3[nH]c(N)nc32)s1` [Example 11, 3-(7-Amino-6H-imidazo[4′,5′:3,4]benzo[2,1-d]thiazol-2-ylamino)-4-isopropoxy-benzamide.HCl], in that order: 1300 nM, 720 nM, 470 nM and 250 nM.
For the compound `Cc1nc2c(s1)-c1nc(Nc3cc(C(N)=O)ccc3OC(C)C)sc1CC2` [Example 12, 4-Isopropoxy-3-(2-methyl-4,5-dihydro-benzo[1,2-d;3,4-d′]-bisthiazol-7-ylamino)-benzamide.TFA], the Kd in experiment [1] stood at 1700 nM; in experiment [2] it was 3800 nM; in experiment [3] it was 6500 nM. In experiment [4], this compound showed an IC50 of 1100 nM.
Consider `Cc1nc2ccc3sc(Nc4cc(C(N)=O)ccc4OC(C)C)nc3c2s1` [Example 13, 4-Isopropoxy-3-(2-methyl-benzo[1,2-d;3,4-d′]bisthiazol-7-ylamino)-benzamide.TFA], for which the Kd was 230 nM in experiment [1], 390 nM in experiment [2] and 2200 nM in experiment [3]. For the same compound, the IC50 in experiment [4] came to 420 nM.
Consider `COc1ccccc1Nc1nc2c(s1)CCCc1nc(N)sc1-2` [Example 14, N^8-(2-Methoxy-phenyl)-5,6-dihydro-4H-1,7-dithia-3,9-diaza-cyclopenta[e]azulene-2,8-diamine.TFA], for which the Kd in experiment [1] was determined as 2400 nM; in experiment [2] it was 550 nM; in experiment [3] it was 20000 nM. This compound showed an IC50 in experiment [4] of 1100 nM.
`CCOc1ccncc1Nc1nc2c(ccc3c2ncn3C)s1` [Example 156, N-(4-Ethoxypyridin-3-yl)-6-methyl-6H-imidazo[4′,5′:5,6]benzo[1,2-d]thiazol-2-amine.HCl]: the Kd in experiment [1] is 650 nM; in experiment [2], 40 nM. Further, the half-inhibitory concentration (IC50) in experiment [4] was 100 nM.
The like results for `CC(C)Oc1ccncc1Nc1nc2c(ccc3c2ncn3C)s1` [Example 157, N-(4-Isopropoxypyridin-3-yl)-6-methyl-6H-imidazo[4′,5′:5,6]benzo[1,2-d]thiazol-2-amine.HCl] were, in that order, 350 nM, 18 nM and 42 nM.
Take `Cc1nc2c3nc(Nc4cnccc4OC(C)C)sc3ccc2n1C` [Example 158, N-(4-Isopropoxypyridin-3-yl)-6,7-dimethyl-6H-imidazo[4′,5′:5,6]benzo[1,2-d]thiazol-2-amine.HCl]: the Kd in experiment [1] amounted to 260 nM; in experiment [2] it was 14 nM. Also, in experiment [4], the IC50 was 64 nM.
For the compound `CCn1c(C)nc2ccc3sc(Nc4cnccc4OC(C)C)nc3c21` [Example 159, 8-Ethyl-N-(4-isopropoxypyridin-3-yl)-7-methyl-8H-imidazo[4′,5′:5,6]benzo[1,2-d]thiazol-2-amine.HCl], the Kd is 380 nM in experiment [1] and 43 nM in experiment [2]. The same compound registered an IC50 in experiment [4] of 66 nM.
As to `CC(C)Oc1ccc(C#N)cc1Nc1nc2c(ccc3c2ncn3C)s1` [Example 160, 4-isopropoxy-3-((6-methyl-6H-imidazo[4′,5′:5,6]benzo[1,2-d]thiazol-2-yl)amino)benzonitrile.HCl], the Kd in experiment [1] was 290 nM; in experiment [2], 75 nM. In addition, inhibition in experiment [4] was half-maximal at 160 nM (IC50).
As for `Cn1cnc2c3nc(Nc4cc(C#N)ccc4OC(F)(F)F)sc3ccc21` [Example 164], the Kd turned out to be 360 nM in experiment [1] and 110 nM in experiment [2]. The compound also displayed an IC50 in experiment [4] of 180 nM.
